Results: patent US7166739B2, “Esters of monomethyl branched alcohols and process for preparing and using same in cosmetics and personal care products” (Finetex, Inc., priority 2004, dated 2007)

Assays:
[1] = Solubility of esters in various solvents (1 gram of ester in 10 gm. solvent)
[2] = Spreading coefficient of esters (typical properties); assay type: physicochemical; design: unit not given here
Method: (§1) An analysis of the esters of the invention, i.e., Benzoate ester (Ref. No. 130-63); Octanoate Ester (Ref. No. 130-67); and Maleate Ester (Ref. No. 134-26), was conducted as to appearance, color, percentage water, acidity, saponification value, surface tension, spreading coefficient, freezing point, refractive index and specific gravity. The results are presented in Table I which identifies typical properties of the esters of the invention.

[3] = Viscosity of esters (typical properties); assay type: physicochemical; details: @ 25° C.
Method: as §1

[4] = Surface tension of esters (typical properties); assay type: physicochemical
Method: as §1

Solubility in Dow Corning Fluid 245/345 [1]: +
Solubility in Ethanol [1]: +
Solubility in Finester EH-25 [1]: +
Solubility in Finsolv BOD [1]: +
Solubility in Finsolv EB [1]: +
Solubility in Finsolv EMG-20 [1]: −
Solubility in Finsolv P [1]: +
Solubility in Finsolv PG-22 [1]: +
Solubility in Finsolv PL-62 [1]: +
Solubility in Finsolv PL-355 [1]: +
Solubility in Finsolv SB [1]: +
Solubility in Finsolv TN [1]: +
Solubility in Glycerine [1]: −
Solubility in IPM/IPP (Witconol 2314/2316) [1]: +
Solubility in Mineral Oil [1]: +
Solubility in Propylene Glycol [1]: −
Solubility in Water [1]: −
Spreading Coefficient [2]: 34.0
Viscosity [3]: 80 cps
Surface Tension [4]: 30.5 dynes/cm
Substance: Di(C16–17 alkyl) maleate [Maleate Ester (134-26)]
